The values below come from patent US8178579B2, “Dioxanes and uses thereof” (President and Fellows of Harvard College, priority 2001, dated 2012).

For the assay, the target named is T1, HDAC6 (Homo sapiens, UniProt Q9UBN7).
T1 sequence (Q9UBN7 1-1215): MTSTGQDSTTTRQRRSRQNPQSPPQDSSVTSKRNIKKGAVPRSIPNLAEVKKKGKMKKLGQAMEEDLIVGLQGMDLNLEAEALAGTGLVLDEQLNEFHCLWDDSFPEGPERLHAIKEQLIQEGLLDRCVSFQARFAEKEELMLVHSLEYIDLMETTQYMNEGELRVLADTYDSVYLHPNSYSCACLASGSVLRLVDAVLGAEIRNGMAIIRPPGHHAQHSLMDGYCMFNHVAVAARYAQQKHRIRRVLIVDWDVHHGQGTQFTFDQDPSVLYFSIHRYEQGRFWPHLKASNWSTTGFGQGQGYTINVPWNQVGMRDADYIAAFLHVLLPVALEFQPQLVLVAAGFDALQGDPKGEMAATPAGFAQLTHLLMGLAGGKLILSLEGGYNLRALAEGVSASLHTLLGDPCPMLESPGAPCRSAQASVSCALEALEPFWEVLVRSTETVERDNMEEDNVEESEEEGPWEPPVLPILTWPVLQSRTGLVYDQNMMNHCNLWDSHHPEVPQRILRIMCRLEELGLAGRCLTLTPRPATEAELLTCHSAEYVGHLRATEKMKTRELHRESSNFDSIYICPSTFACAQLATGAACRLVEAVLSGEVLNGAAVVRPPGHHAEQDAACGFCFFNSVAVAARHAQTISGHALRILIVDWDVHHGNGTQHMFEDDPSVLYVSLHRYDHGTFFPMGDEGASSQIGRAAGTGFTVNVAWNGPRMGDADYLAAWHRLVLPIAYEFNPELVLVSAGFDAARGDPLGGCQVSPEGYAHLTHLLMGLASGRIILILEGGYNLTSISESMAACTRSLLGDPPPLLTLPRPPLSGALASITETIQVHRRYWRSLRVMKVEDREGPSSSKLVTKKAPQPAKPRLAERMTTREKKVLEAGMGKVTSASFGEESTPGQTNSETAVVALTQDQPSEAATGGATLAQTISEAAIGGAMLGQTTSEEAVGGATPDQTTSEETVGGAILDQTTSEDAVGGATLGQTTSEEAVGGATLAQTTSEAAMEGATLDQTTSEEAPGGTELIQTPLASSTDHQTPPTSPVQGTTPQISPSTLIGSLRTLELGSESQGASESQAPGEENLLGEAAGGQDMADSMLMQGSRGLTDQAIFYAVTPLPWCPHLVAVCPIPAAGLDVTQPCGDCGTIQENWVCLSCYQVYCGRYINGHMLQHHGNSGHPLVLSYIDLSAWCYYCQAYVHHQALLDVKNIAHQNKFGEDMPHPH
Nature of the assay: HDAC assay, [3H]acetate-incorporated histones with immunoprecipitated FLAG-tagged HDAC6 (HDAC6F). In kind it is biochemical. On the set-up: made in house; host or cells: TAg Jurkat cells, transient transfection, anti-FLAG M2 immunoprecipitation. Conditions: [3H]-labeled histones, n=3. As to the method: Cell culture and Transfections. TAg-Jurkat cells were transfected by electroporation with 5 μg of FLAG-epitope-tagged pBJ5 constructs (as described in ref. 5c) for expression of recombinant proteins. Cells were harvested 48 h posttransfection.
HDAC assays. […] Compounds were added in DMSO such that final assay concentrations were 1% DMSO. IC50s were calculated using Prism 3.0 software. Curve fitting was done without constraints using the program's Sigmoidal-Dose Response parameters. All data points were acquired in duplicate and IC50s are calculated from the composite results of at least two separate experiments.
Tubulin and MAPs were isolated from bovine brain as described [See http://mitchison.med.harvard.edu/protocols/tubprep.html]. Whole brain and fractions from phosphocellulose chromatography were blotted for HDAC6 and acetylated α-tubulin. Cultured hippocampal neurons from dissociated 1-day old rat brains were transfected with an enhanced green fluorescent protein (EGFP)-actin construct at 4-5 days using the calcium phosphate method [E. N. Star, D. J. Kwiatkowski and V. N. Murthy, Nat. Neurosci. […] K. Miranti and M. E. Greenberg, J. Neurosci. […] Transfected cultures were allowed to grow for at least 48 h before the addition of experimental compounds.
[^3H]Acetate-incorporated histones were isolated from butyrate-treated HeLa cells as described [J. Taunton, C. […] Immunoprecipitates were incubated with acetylated histones and HDAC activity determined by scintillation counting as described [J. Taunton, C. […] TDAC assays were performed with immunoprecipitates using MAP-stabilized microtubules polymerized from MAP-rich tubulin fraction as described [C. […] Reactions were incubated (2 h) at 37° C., then incubated on ice (15 min).

Take `CC(/C=C/C(=O)NO)=C\[C@@H](C)C(=O)c1ccc(N(C)C)cc1` [TSA, trichostatin A, reference compound]: the “inhibition of HDAC activity of wild-type HDAC6F” value was “only partial inhibited by TSA or tubacin”.

On to `O=C(CCCCCCC(=O)Nc1ccc([C@@H]2OC(c3ccc(CO)cc3)C[C@H](CSc3nc(-c4ccccc4)c(-c4ccccc4)o3)O2)cc1)NO` (some centres unmarked) [tubacin], for which the “inhibition of HDAC activity of wild-type HDAC6F” value is listed as “only partial inhibited by TSA or tubacin”.
